Laboratory results: ChEMBL document CHEMBL1152710, “The design and discovery of novel amide CCR5 antagonists” (Bioorg Med Chem Lett, 2009)
Each block holds one compound with its values, some of them ahead of it.

Experiments:
[1] = target: T1, C-C chemokine receptor type 5 (Homo sapiens, UniProt P51681); assay: Antagonist activity at human recombinant CCR5 expressed in human HeLa-P4 cells assessed as inhibition of human HeLa-P4 cells binding to HIV1 gp160 expressing CHO cells at 10 uM by cell-cell fusion assay; type: cell-based; design: scale not given: the % may be the effect or the level left
Target sequence in this assay (P51681 whole entry, looked up, the tested form may be a part): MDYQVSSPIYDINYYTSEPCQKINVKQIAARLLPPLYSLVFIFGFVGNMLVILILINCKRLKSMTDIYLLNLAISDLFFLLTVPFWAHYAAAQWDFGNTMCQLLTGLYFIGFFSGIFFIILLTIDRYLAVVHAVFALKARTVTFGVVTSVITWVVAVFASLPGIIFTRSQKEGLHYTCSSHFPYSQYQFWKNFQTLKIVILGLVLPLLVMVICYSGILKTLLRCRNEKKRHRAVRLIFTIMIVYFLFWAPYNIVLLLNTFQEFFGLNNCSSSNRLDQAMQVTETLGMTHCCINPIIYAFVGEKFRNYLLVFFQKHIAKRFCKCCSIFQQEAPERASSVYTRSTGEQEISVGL

[2] = target: T1, C-C chemokine receptor type 5; assay: Antagonist activity at human recombinant CCR5 expressed in human HeLa-P4 cells assessed as inhibition of human HeLa-P4 cells binding to HIV1 gp160 expressing CHO cells at 1 uM by cell-cell fusion assay; type: cell-based; design: scale not given: the % may be the effect or the level left
Target sequence in this assay (P51681 whole entry, looked up, the tested form may be a part): as above

[3] = system: Human immunodeficiency virus 1; assay: Antiviral activity against HIV1 Bal infected in human PM1 cells assessed as inhibition of viral replication; type: functional; details: Human immunodeficiency virus 1, Bal
[4] = Lipophilicity, log D at pH 7.4; type: physicochemical; details: buffer
[5] = Metabolic stability in human liver microsomes assessed as intrinsic clearance at 1 uM after 30 mins; type: ADME, Microsome
[6] = target: T1, C-C chemokine receptor type 5; assay: Antagonist activity at human recombinant CCR5 expressed in human HeLa-P4 cells assessed as inhibition of human HeLa-P4 cells binding to HIV1 gp160 expressing CHO cells at 100 nM by cell-cell fusion assay; type: cell-based; design: scale not given: the % may be the effect or the level left
Target sequence in this assay (P51681 whole entry, looked up, the tested form may be a part): as above

[7] = target: Voltage-gated inwardly rectifying potassium channel KCNH2 (Homo sapiens, UniProt Q12809); assay: Displacement of [3H]dofetilide form human ERG expressed in HEK239 cells
Voltage-gated inwardly rectifying potassium channel KCNH2, sequence (Q12809 whole entry): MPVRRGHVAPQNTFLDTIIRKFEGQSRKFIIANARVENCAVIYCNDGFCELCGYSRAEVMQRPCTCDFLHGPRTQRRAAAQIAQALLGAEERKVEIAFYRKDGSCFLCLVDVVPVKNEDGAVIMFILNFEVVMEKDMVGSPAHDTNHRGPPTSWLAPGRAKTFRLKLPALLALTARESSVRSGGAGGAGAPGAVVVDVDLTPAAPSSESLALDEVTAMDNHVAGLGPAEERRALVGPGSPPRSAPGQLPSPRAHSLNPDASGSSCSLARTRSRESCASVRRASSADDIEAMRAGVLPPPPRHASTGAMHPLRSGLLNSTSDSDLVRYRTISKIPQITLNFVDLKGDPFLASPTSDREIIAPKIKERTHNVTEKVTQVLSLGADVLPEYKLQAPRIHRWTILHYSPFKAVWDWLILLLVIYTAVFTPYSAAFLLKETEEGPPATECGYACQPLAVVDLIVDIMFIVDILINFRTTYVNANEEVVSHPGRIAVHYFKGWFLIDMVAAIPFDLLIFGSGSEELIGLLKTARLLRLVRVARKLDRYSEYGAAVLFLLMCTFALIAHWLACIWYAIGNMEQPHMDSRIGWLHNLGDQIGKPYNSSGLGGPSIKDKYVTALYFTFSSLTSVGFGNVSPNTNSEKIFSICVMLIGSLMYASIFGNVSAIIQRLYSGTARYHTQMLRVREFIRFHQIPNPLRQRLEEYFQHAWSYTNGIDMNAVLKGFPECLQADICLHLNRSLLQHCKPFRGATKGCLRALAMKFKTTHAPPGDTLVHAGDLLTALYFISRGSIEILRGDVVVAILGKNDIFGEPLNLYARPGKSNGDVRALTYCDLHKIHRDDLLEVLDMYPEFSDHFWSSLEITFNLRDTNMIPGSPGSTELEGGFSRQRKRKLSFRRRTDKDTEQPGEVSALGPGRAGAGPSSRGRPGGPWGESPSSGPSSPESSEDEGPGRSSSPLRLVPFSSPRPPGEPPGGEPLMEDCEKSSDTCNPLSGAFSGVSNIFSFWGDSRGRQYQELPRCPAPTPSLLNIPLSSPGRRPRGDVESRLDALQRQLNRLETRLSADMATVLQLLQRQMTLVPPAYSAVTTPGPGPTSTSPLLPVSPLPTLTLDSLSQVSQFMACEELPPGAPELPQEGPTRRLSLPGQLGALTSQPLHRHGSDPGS

[8] = target: T1, C-C chemokine receptor type 5; assay: Displacement of [125]Mip1beta form CCR5 receptor expressed in MIP34.10 cells; type: cell-based
Target sequence in this assay (P51681 whole entry, the tested form may be a part): as the sequence (P51681 whole entry, looked up, the tested form may be a part) above

SMILES: Cc1ccnc(C)c1C(=O)N1CCN(CCC(c2ccccc2)c2ccccc2)CC1
Activity [1]: 0%

SMILES: CC(=O)NC(c1ccccc1)[C@H]1CCN(C2CCN(C(=O)c3c(C)cccc3C)CC2)C1 (single isomer, unassigned; diastereomer 1)
Activity [2]: 18%

SMILES: CC(=O)NC1(c2ccccc2)CCN(C2CCN(C(=O)c3c(C)ccnc3C)CC2)CC1
Activity [1]: 20%

SMILES: Cc1cccc(C)c1C(=O)N1CCC(N2CCC(N(Cc3ccccc3)C(=O)C3CCC3)CC2)CC1
IC90 [3]: 40 nM
logD [4]: 3.5
microsomal CLint at 1 µM [5]: 205 µL/min/mg

SMILES: Cc1cccc(C)c1C(=O)N1CCC(N(C)C2CN(C(CNC(=O)C3CCC3)c3ccccc3)C2)CC1 (centres undefined)
Activity [1]: 20%

SMILES: Cc1cccc(C)c1C(=O)N1CCC(N2CCCC(N(Cc3ccccc3)C(=O)C3CC3)C2)CC1 (racemic)
Activity [1]: 19%

SMILES: Cc1ccnc(C)c1C(=O)N1[C@@H]2CC[C@H]1C[C@H](N1CCN(C(c3ccccc3)c3ccccc3)CC1)C2
Activity [6]: 6%

SMILES: CC(=O)NC(c1ccccc1)C1CCCN(CCNC(=O)c2c(C)cccc2C)C1 (single isomer, unassigned; diastereomer 2)
Activity [1]: 12%

SMILES: Cc1ccnc(C)c1C(=O)NCCN1CCN(C(c2ccccc2)c2ccccc2)CC1
Activity [6]: 15%

SMILES: Cc1ccnc(C)c1C(=O)N1C2CCC1CN(C1CCN(C(c3ccccc3)c3ccccc3)CC1)C2
Activity [6]: 12%

SMILES: Cc1ccnc(C)c1C(=O)N1CCN(C2C[C@H]3CC[C@@H](C2)N3C(c2ccccc2)c2ccccc2)CC1 (mixture of isomers)
Activity [1]: 25%

SMILES: Cc1ccnc(C)c1C(=O)N1CCC(N2CCC(CNC(=O)C3CC3)(Cc3ccccc3)CC2)CC1
Activity [2]: 18%

SMILES: Cc1cccc(C)c1C(=O)N1CCC(N2[C@@H]3CC[C@H]2C[C@H](N(Cc2ccccc2)C(=O)C2CC2)C3)CC1
Activity [2]: 10%

SMILES: CC(=O)NC(c1ccccc1)C1CCCN(C2CCN(C(=O)c3c(C)cccc3C)CC2)C1 (single isomer, unassigned; diastereomer 1)
Activity [1]: 28%

Second part, led by results:

Activity [1]: 0%
SMILES: CC(=O)NC(c1ccccc1)[C@H]1CCN(C2CCN(C(=O)c3c(C)cccc3C)CC2)C1 (single isomer, unassigned; diastereomer 2)

Activity [1]: 20%
SMILES: Cc1cccc(C)c1C(=O)N1CCC(N2CCCC(CC(NC(=O)C3CCC3)c3ccccc3)C2)CC1 (mixture of isomers)

Activity [6]: 13%
SMILES: Cc1ccnc(C)c1C(=O)N1CCC(N(C)CCC(c2ccccc2)c2ccccc2)CC1

Activity [1]: 0%
SMILES: CC(=O)NC(c1ccccc1)C1CCCN(C2CCN(C(=O)c3c(C)cccc3C)CC2)C1 (single isomer, unassigned; diastereomer 2)

IC90 [3]: 2 nM
logD [4]: 2.6
IC50 [8]: 8 nM
microsomal CLint at 1 µM [5]: 195 µL/min/mg
SMILES: Cc1cccc(C)c1C(=O)N1CCC(N2CC[C@@H](N(Cc3ccccc3)C(=O)C3CC3)C2)CC1
IC50 [7]: 9800 nM

Activity [1]: 50%
SMILES: CC(=O)NC(CN1CC(N(C)C2CCN(C(=O)c3c(C)cccc3C)CC2)C1)c1ccccc1 (centres undefined)

Activity [1]: 21%
SMILES: Cc1ccnc(C)c1C(=O)N1[C@@H]2CC[C@H]1C[C@@H](N1CCN(C(c3ccccc3)c3ccccc3)CC1)C2

Activity [1]: 20%
SMILES: CC(=O)NC(c1ccccc1)C1CCCN(CCNC(=O)c2c(C)cccc2C)C1 (single isomer, unassigned; diastereomer 1)

Activity [1]: 20%
SMILES: Cc1ccnc(C)c1C(=O)N1CCC(N2CCC(C(Cc3ccccc3)C(=O)NCC3CC3)CC2)CC1 (centres undefined)
